The values that follow come from patent US10857105B2, “Compounds and compositions for intracellular delivery of therapeutic agents” (ModernaTX, Inc., priority 2017, dated 2020).

The subject of series [1] is mice. The experiment in a line: hEPO expression on repeat intravenous dosing of hEPO mRNA LNPs in mice. To be noted: 0.5 mg/kg hEPO mRNA intravenously to mice. In kind it is in vivo. On the procedure: Blood collection and analysis for hEPO. Blood was collected from mice or rats via the tail vein and hEPO concentrations were determined using a hEPO ELISA assay.
Repeat dosing of mRNA in an MC3-based LNP for a therapeutic indication would be expected to lead to accumulation of MC3 in tissues, based on the measured half-life. Therefore it was investigated whether the favorable single dose pharmacokinetics of compound 18 were maintained with weekly dosing. Clearance of MC3 and compound 18 from multiple mouse tissues was measured after dosing 0.05 mg/kg mRNA on day 1, 8 and 15 (FIG. 30A). Following dosing with MC3 LNPs, lipid was detected in liver, spleen, plasma, kidney, heart and lung; with liver and spleen containing the largest concentrations (FIG. 30A, for full panel of tissues see FIG. 35A). […] Compound 18 was also detected in plasma, lung, and kidney, but not in heart (FIG. 35A).

Series [2] is described as follows: Metabolite identification of Compound 18 incubated with human plasma. It counts as in vitro ADME. Set-up: key to Detection at 0 min / Detection at 30 min / Detection at 60 min / Detection at 90 min: +: Detected; ND: Not detected. On the procedure: Metabolite Identification: Compound 18 (10 μM) was incubated with human plasma (29.0 mg protein/incubation) in incubation mixtures (200 μL final incubation volume) that consisted of 50/50 v/v neat plasma (undiluted)/substrate solution in 50 mM phosphate buffer, pH 7.4). The plasma was obtained from male and female donors and contained K2EDTA anticoagulant. Reactions were started by addition of the substrate solution to human plasma and were stopped at four designated time points (0, 30, 60 and 90 min) by the addition of 600 μL of stop reagent (acetonitrile). Stopped incubation samples were centrifuged (e.g., 10,000×g for 10 min at 10° C.) and the supernatant fractions were analyzed by LC-MS/MS to characterize the metabolites formed from compound 18. Additional incubations were performed with the positive control procaine […] to establish competency of the test system. Samples were analyzed by LC-MS/MS.
In vitro metabolite identification studies using compound 18 were also performed. […] The disappearance of parent compound 18 and the primary metabolite, compound 166, from mouse liver tissue was measured after dosing 0.25 mg/kg mRNA on days 1, 8, and 15.

Series [3] concerns ApoE knockout mice. The experiment in a line: Expression study in ApoE knockout mice. In kind it is in vivo. To be noted: compound 18 based LNPs.
Series [4] is described as follows: Tolerability (AST, ALT, clinical signs, hematology) in non-human primates. To be noted: single dose 0.05, 0.3 or 1.0 mpk, intravenous infusion 60 minutes. It counts as in vivo. The method, then:
(§1) The tolerability and efficacy of nanoparticle compositions to non-human primates was also investigated using a sample formulation including Compound 18. The formulation was prepared according to the standard MC3 formulation described above and included an hEPO mRNA. Primates were administered a single dose of 0.05 (Group 1), 0.3 (Group 2), or 1.0 (Group 3) mpk via intravenous infusion for 60 minutes. Three primates were administered each dose. Expression of hEPO was measured prior to dosing and at 2, 6, 24, 48, and 96 hours post-treatment (Table 26). Table 28 includes levels of indicators of complement activation, while Table 29 includes cytokine induction data.
In general, lower doses were better tolerated. High doses induced body temperature elevation and hunched posture, which is similar to the behavior observed for primates administered higher doses of MC3 formulations.

Series [5] in a line: Complement activation indicators in non-human primates. It counts as in vivo. On the procedure:
as §1

Series [6] in a line: Alanine aminotransferase (ALT) and aspartate aminotransferase (AST) in rat after intravenous administration. In kind it is in vivo. On the procedure:
Table 19A summarizes the hEPO expression, IP-10 induction, liver and spleen levels, and alanine aminotransferase (ALT) and aspartate aminotransferase (AST) measured upon intravenous administration of formulations including Compounds 48, 49, and 50 to rat at 0.2 and 2 mpk and hEPO mRNA. hEPO concentrations were measured 6 hours after administration, while cytokine induction and liver and spleen levels were measured 48 hours after administration. hEPO and IP-10 concentrations are presented in pg/ml, while liver levels are provided in ng/g. ALT and AST levels are presented in international units.

The subject of series [7] is hEPO mRNA. The experiment in a line: Pretreatment study (methotrexate or dexamethasone) with MC3 formulation in Cynomolgus monkeys. It counts as in vivo. To be noted: once weekly for four weeks, absence of any pretreatment. The text has this:
In order to combat negative effects, nanoparticle compositions are co-administered with one or more substances (e.g., co-medications or additional therapeutic and/or prophylactics) to subjects. Potentially useful additional therapeutic and/or prophylactics include steroids (e.g., corticosteroids), anti-histamines, H1 receptor blockers, H2 receptor blockers, anti-inflammatory compounds, statins, BTK inhibitors, S1P1 agonists, glucocorticoid receptor modulators (GRMs), and estradiols. Non-human primates are pretreated with one or more additional therapeutic agents selected from dexamethasone and acetaminophen. The additional therapeutic agent is administered either 24 hours, 1 hour, or both 24 hours and 1 hour before administration of a nanoparticle composition. Cytokine profiles, inflammation, and other parameters are measured and compared to evaluate the effectiveness of pretreatment
The effects of pretreatment to non-human primates were evaluated using a standard MC3 formulation including an mRNA encoding hEPO. Male monkeys were administered the nanoparticle composition once weekly for four weeks at a dose rate of 5 ml/kg/h and were pretreated with either methotrexate or dexamethasone.
As shown, in the absence of any pretreatment, maximal expression levels decreased nearly 70% over the course of the study.

The test system of series [8] is Sprague Dawley rat. To be noted: 0.3 mg/kg dose mRNA; cited from earlier work.

The structures appear in SMILES notation.

As for `CCCCCCCCCOC(=O)CCCCCCCN(CCO)CCCCCCCC(=O)OC(CCCCCCCC)CCCCCCCC` [Compound 18, Heptadecan-9-yl 8-((2-hydroxyethyl)(8-(nonyloxy)-8-oxooctyl)amino)octanoate], the “hEPO expression on repeat dosing” value in series [1] is given as “Consistent levels of expression”. Moreover, in series [2] (Compound 18 (10 μM), human plasma (29.0 mg protein/incubation), 0 min), the “Detection at 0 min” value is on record as “+”. Besides, the “Detection at 30 min” value in series [2] (Compound 18 (10 μM), human plasma, 30 min) was “+”. In series [2] (Compound 18 (10 μM), human plasma, 60 min), the “Detection at 60 min” value was “+”. In addition, the “Detection at 90 min” value in series [2] (Compound 18 (10 μM), human plasma, 90 min) is recorded as “+”. In addition, the “initial step of metabolism” value in series [2] (in vitro metabolite identification studies) is “hydrolysis of the primary ester”. Besides, the “expression in ApoE knockout mice” value in series [3] is “almost complete loss in expression”. In series [4], the Tolerability result is recorded as “tolerated similarly to the MC3 formulation”. For the same compound, the Bb fragment in series [5] (Group 1 (0.05 mpk), 2 h) came to 5341 ng/mL; in series [5] (Group 1 (0.05 mpk), 6 h) it was 3037 ng/mL; in series [5] (Group 1 (0.05 mpk), 24 h), 1496 ng/mL; in series [5] (Group 1 (0.05 mpk), Day 5), 1273 ng/mL; in series [5] (Group 1 (0.05 mpk), Predose), 1375 ng/mL; in series [5] (Group 2 (0.3 mpk), 2 h), 5356 ng/mL. In addition, the Bb fragment in series [5] (Group 2 (0.3 mpk), 6 h) is 7157 ng/mL; in series [5] (Group 2 (0.3 mpk), 24 h), 3680 ng/mL; in series [5] (Group 2 (0.3 mpk), Day 5), 2400 ng/mL; in series [5] (Group 2 (0.3 mpk), Predose), 1461 ng/mL; in series [5] (Group 3 (1.0 mpk), 2 h), 8849 ng/mL; in series [5] (Group 3 (1.0 mpk), 6 h) it was 12820 ng/mL. In addition, the Bb fragment was found to be 8601 ng/mL in series [5] (Group 3 (1.0 mpk), 24 h); 2834 ng/mL in series [5] (Group 3 (1.0 mpk), Day 5); 1529 ng/mL in series [5] (Group 3 (1.0 mpk), Predose). Moreover, the C5b9 in series [5] (Group 1 (0.05 mpk), 2 h) is 1959 ng/mL; in series [5] (Group 1 (0.05 mpk), 6 h), 786 ng/mL; in series [5] (Group 1 (0.05 mpk), Predose), 169 ng/mL; in series [5] (Group 2 (0.3 mpk), 2 h), 393 ng/mL; in series [5] (Group 2 (0.3 mpk), 6 h), 1333 ng/mL; in series [5] (Group 2 (0.3 mpk), Predose), 157 ng/mL. Also, the C5b9 in series [5] (Group 3 (1.0 mpk), 2 h) came to 801 ng/mL; in series [5] (Group 3 (1.0 mpk), 6 h) it was 2928 ng/mL; in series [5] (Group 3 (1.0 mpk), Predose), 238 ng/mL. The C3a in series [5] (Group 1 (0.05 mpk), 6 h) is 12385 ng/mL; in series [5] (Group 1 (0.05 mpk), 24 h), 11596 ng/mL; in series [5] (Group 1 (0.05 mpk), Day 5), 11945 ng/mL; in series [5] (Group 2 (0.3 mpk), 6 h) it was 32436 ng/mL; in series [5] (Group 2 (0.3 mpk), 24 h), 19721 ng/mL; in series [5] (Group 2 (0.3 mpk), Day 5), 16207 ng/mL. Also, the C3a in series [5] (Group 3 (1.0 mpk), 6 h) stood at 51996 ng/mL; in series [5] (Group 3 (1.0 mpk), 24 h), 35843 ng/mL; in series [5] (Group 3 (1.0 mpk), Day 5), 19101 ng/mL.

In series [6] (intravenous 0.2 mpk), `CCCCCC=CCC=CCCCCCCCCC(CCCCCCCCC=CCC=CCCCCC)OC(=O)CCCN(C)C` (centres unmarked) [MC3, heptatriaconta-6,9,28,31-tetraen-19-yl 4-(dimethylamino)butanoate, reference compound] yielded an ALT of 63.6 international units and an AST of 134.8 international units. In series [6] (intravenous 2 mpk), the ALT came out at 79.6 international units and the AST was found to be 139.0 international units. For the same compound, the “Decrease of maximal expression levels over the course of the study” value in series [7] was ~70%. The “ALT, AST and pathology of MC3-based mRNA LNP” value in series [8] was “ALT and AST were elevated and pathology showed evidence of necrosis”.
